From US9273058B2 (BRISTOL-MYERS SQUIBB COMPANY, priority 2013, dated 2016)
Where two headings read alike, the source gives them in different places.

Assays:
CK1ε = CK1ε (Homo sapiens, UniProt P49674); test: CK1ε kinase assay (Caliper LabChip electrophoretic separation of fluoresceinated peptide substrate and product); format: biochemical; conditions: 200 pM CK1ε, 50 μM ATP, 1.5 μM peptide, 22 hours at room temperature
Outline: (§1)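 Compounds, taken from 10 mM DMSO stocks, are titrated at eleven concentrations. Kinase reactions proceed for 22 hours at room temperature and are quenched with EDTA. Substrate and product are resolved electrophoretically, and IC50 values are fitted by non-linear regression.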

CK1δ = CK1δ (Homo sapiens, UniProt P48730); test: CK1δ kinase assay (Caliper LabChip electrophoretic separation of fluoresceinated peptide substrate and product); format: biochemical; conditions: 200 pM CK1δ, 50 μM ATP, 1.5 μM peptide, 22 hours at room temperature
Chain of CK1δ (P48730 whole entry): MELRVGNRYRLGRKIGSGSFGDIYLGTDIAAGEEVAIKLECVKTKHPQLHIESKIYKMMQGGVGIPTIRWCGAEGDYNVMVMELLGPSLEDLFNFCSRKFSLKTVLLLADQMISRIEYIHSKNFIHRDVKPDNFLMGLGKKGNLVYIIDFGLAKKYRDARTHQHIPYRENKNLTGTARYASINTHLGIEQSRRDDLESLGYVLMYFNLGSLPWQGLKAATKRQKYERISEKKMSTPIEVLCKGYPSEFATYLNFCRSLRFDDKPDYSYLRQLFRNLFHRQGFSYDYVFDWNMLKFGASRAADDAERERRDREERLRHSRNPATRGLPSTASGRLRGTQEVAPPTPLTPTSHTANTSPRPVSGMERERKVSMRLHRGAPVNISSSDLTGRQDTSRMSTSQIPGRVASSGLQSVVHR
Outline: as §1

Chain of CK1ε (P49674 whole entry): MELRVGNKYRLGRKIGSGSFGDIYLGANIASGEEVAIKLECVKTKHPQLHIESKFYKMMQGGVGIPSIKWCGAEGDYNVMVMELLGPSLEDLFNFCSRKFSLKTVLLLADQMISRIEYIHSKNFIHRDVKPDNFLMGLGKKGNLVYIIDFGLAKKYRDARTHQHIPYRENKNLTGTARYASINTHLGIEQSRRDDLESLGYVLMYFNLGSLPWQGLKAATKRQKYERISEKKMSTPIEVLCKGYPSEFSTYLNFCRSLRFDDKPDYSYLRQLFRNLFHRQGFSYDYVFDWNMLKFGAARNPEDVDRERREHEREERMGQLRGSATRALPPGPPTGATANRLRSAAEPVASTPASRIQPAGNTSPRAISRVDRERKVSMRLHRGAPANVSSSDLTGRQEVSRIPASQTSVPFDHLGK

Row | SMILES | IC50 (CK1ε; read-out: CK1ε IC50 range) | IC50 (CK1δ; read-out: CK1δ IC50 range) | IC50 (CK1ε; read-out: CK1ε) | IC50 (CK1δ; read-out: CK1δ)
1 | CC(=O)N1CC2(C1)CN(C(=O)NC(C)(C)C)Cc1c(C(N)=O)c(-c3ccc(F)c(Cl)c3)nn12 [Compound A135, 1-Acetyl-N^5′-(tert-butyl)-2′-(3-chloro-4-fluorophenyl)-4′H-spiro[azetidine-3,7′-pyrazolo[1,5-a]pyrazine]-3′,5′(6′H)-dicarboxamide] | 0.01 to 10 nM | 0.01 to 10 nM | – | –
2 | COc1ccc([C@H]2C[C@@H](NC(=O)N3CCn4nc(-c5cccc(Cl)c5)c(C(N)=O)c4C3)C2)cc1 [Compound 281, 2-(3-Chlorophenyl)-N^5-((1s,3s)-3-(4-methoxyphenyl)cyclobutyl)-6,7-dihydropyrazolo[1,5-a] pyrazine-3,5(4H)-dicarboxamide] | 0.01 to 10 nM | 0.01 to 10 nM | – | –
3 | CC(C)(C)NC(=O)N1CCn2nc(-c3cccc(C(F)(F)F)c3)c(C(N)=O)c2C1 [Compound 110, N^5-(tert-Butyl)-2-(3-(trifluoromethyl)phenyl)-6,7-dihydropyrazolo[1,5-a] pyrazine-3,5(4H)-dicarboxamide] | 100 to 2000 nM | 10 to 100 nM | 156 nM | 83.9 nM
4 | CC(C)(NC(=O)N1CCn2nc(-c3cccc(Cl)c3)c(C(N)=O)c2C1)C(F)F [Compound 172, 2-(3-Chlorophenyl)-N^5-(1,1-difluoro-2-methylpropan-2-yl)-6,7-dihydropyrazolo[1,5-a] pyrazine-3,5(4H)-dicarboxamide] | 0.01 to 10 nM | 0.01 to 10 nM | – | –
5 | NC(=O)c1c(-c2cccc(F)c2)nn2c1CN(C(=O)NC1CC1)CC2 [Compound 7, N^5-Cyclopropyl-2-(3-fluorophenyl)-6,7-dihydropyrazolo[1,5-a]pyrazine-3,5(4H)-dicarboxamide] | 10 to 100 nM | 10 to 100 nM | – | –
6 | CC(C)(C)NC(=O)N1Cc2c(C(N)=O)c(-c3ccc(F)c(Cl)c3)nn2C(CCO)C1 (single isomer, unassigned) [Compound A96, N^5-(tert-Butyl)-2-(3-chloro-4-fluorophenyl)-7-(2-hydroxyethyl)-6,7-dihydropyrazolo[1,5-a]pyrazine-3,5(4H)-dicarboxamide] | 0.01 to 10 nM | 0.01 to 10 nM | – | –
7 | CC(C)(C)NC(=O)N1Cc2c(C(N)=O)c(-c3ccc(Cl)c(Cl)c3)nn2C(C(C)(C)O)C1 (centres unmarked) [Compound A37, N^5-(tert-Butyl)-2-(3,4-dichlorophenyl)-7-(2-hydroxypropan-2-yl)-6,7-dihydropyrazolo[1,5-a]pyrazine-3,5(4H)-dicarboxamide] | 0.01 to 10 nM | 10 to 100 nM | – | –
8 | NC(=O)c1c(-c2cccc(Cl)c2)nn2c1CN(C(=O)NC1(COC(F)F)CCC1)CC2 [Compound 225, 2-(3-Chlorophenyl)-N^5-(1-((difluoromethoxy)methyl)cyclobutyl)-6,7-dihydropyrazolo[1,5-a] pyrazine-3,5(4H)-dicarboxamide] | 0.01 to 10 nM | 0.01 to 10 nM | – | –
9 | CC12CC3(C)CC(C)(C1)CC(NC(=O)N1CCn4nc(-c5cccc(Cl)c5)c(C(N)=O)c4C1)(C2)C3 [Compound A85, 2-(3-Chlorophenyl)-N^5-((3s,5s,7s)-3,5,7-trimethyladamantan-1-yl)-6,7-dihydropyrazolo[1,5-a]pyrazine-3,5(4H)-dicarboxamide] | 0.01 to 10 nM | 0.01 to 10 nM | – | –
10 | NC(=O)c1c(-c2ccc(F)c(Cl)c2)nn2c1CN(C(=O)NC13CCC(CO)(CC1)CC3)CC2 [Compound A55, 2-(3-Chloro-4-fluorophenyl)-N^5-(4-(hydroxymethyl)bicyclo[2.2.2]octan-1-yl)-6,7-dihydropyrazolo[1,5-a]pyrazine-3,5(4H)-dicarboxamide] | 0.01 to 10 nM | 0.01 to 10 nM | – | –
11 | CC(C)(NC(=O)N1CCn2nc(-c3ccc(F)c(Cl)c3)c(C(N)=O)c2C1)C1CCC(F)(F)CC1 [Compound 232, 2-(3-Chloro-4-fluorophenyl)-N^5-(2-(4,4-difluorocyclohexyl)propan-2-yl)-6,7-dihydropyrazolo[1,5-a]pyrazine-3,5(4H)-dicarboxamide] | 0.01 to 10 nM | 0.01 to 10 nM | – | –
12 | CC1(NC(=O)N2Cc3c(C(N)=O)c(-c4ccc(F)c(Cl)c4)nn3C(CF)C2)CC(F)(F)C1 (centres unmarked) [Compound A10, 2-(3-Chloro-4-fluorophenyl)-N^5-(3,3-difluoro-1-methylcyclobutyl)-7-(fluoromethyl)-6,7-dihydropyrazolo[1,5-a]pyrazine-3,5(4H)-dicarboxamide] | 0.01 to 10 nM | 0.01 to 10 nM | – | –
13 | NC(=O)c1c(-c2ccc(Cl)c(Cl)c2)nn2c1CN(C(=O)NC1CC(C(F)F)C1)CC2 (centres unmarked) [Compound 255, 2-(3,4-Dichlorophenyl)-N^5-(3-(difluoromethyl)cyclobutyl)-6,7-dihydropyrazolo[1,5-a]pyrazine-3,5(4H)-dicarboxamide] | 0.01 to 10 nM | 0.01 to 10 nM | – | –
14 | NC(=O)c1c(-c2cccc(Cl)c2)nn2c1CN(C(=O)NCC1CC(F)(F)C1)CC2 [Compound 179, 2-(3-Chlorophenyl)-N^5-((3,3-difluorocyclobutyl)methyl)-6,7-dihydropyrazolo[1,5-a]pyrazine-3,5(4H)-dicarboxamide] | 0.01 to 10 nM | 0.01 to 10 nM | – | –
15 | COC12CCC(NC(=O)N3CCn4nc(-c5ccc(F)c(Cl)c5)c(C(N)=O)c4C3)(CC1)C2 [Compound A63, 2-(3-Chloro-4-fluorophenyl)-N^5-(4-methoxybicyclo[2.2.1]heptan-1-yl)-6,7-dihydropyrazolo[1,5-a]pyrazine-3,5(4H)-dicarboxamide] | 0.01 to 10 nM | 0.01 to 10 nM | – | –
16 | NC(=O)c1c(-c2ccc(Cl)c(Cl)c2)nn2c1CN(C(=O)NC1CC(F)(F)C1)CC2 [Compound 294, 2-(3,4-Dichlorophenyl)-N^5-(3,3-difluorocyclobutyl)-6,7-dihydropyrazolo[1,5-a] pyrazine-3,5(4H)-dicarboxamide] | 0.01 to 10 nM | 0.01 to 10 nM | – | –
17 | CC(C)(C)NC(=O)N1CCn2nc(-c3ccccc3C(N)=O)c(C(N)=O)c2C1 [Compound 131, N^5-(tert-Butyl)-2-(2-carbamoylphenyl)-6,7-dihydropyrazolo[1,5-a] pyrazine-3,5(4H)-dicarboxamide] | 100 to 2000 nM | 100 to 2000 nM | – | –
18 | N#CCC1(NC(=O)N2CCn3nc(-c4ccc(F)c(Cl)c4)c(C(N)=O)c3C2)CCC1 [Compound 220, 2-(3-Chloro-4-fluorophenyl)-N^5-(1-(cyanomethyl)cyclobutyl)-6,7-dihydro pyrazolo[1,5-a]pyrazine-3,5(4H)-dicarboxamide] | 0.01 to 10 nM | 0.01 to 10 nM | – | –
19 | COc1ccc(CCNC(=O)N2CCn3nc(-c4cccc(F)c4)c(C(N)=O)c3C2)cc1 [Compound 47, 2-(3-Fluorophenyl)-N^5-(4-methoxyphenethyl)-6,7-dihydropyrazolo[1,5-a]pyrazine-3,5(4H)-dicarboxamide] | 100 to 2000 nM | 10 to 100 nM | – | –
20 | CC(C)NC(=O)N1CCn2nc(-c3ccc(F)cc3)c(C(N)=O)c2C1 [Compound 2, 2-(4-Fluorophenyl)-N^5-isopropyl-6,7-dihydropyrazolo[1,5-a]pyrazine-3,5(4H)-dicarboxamide] | 10 to 100 nM | 10 to 100 nM | – | –
21 | CC(F)(F)C(C)(C)NC(=O)N1CCn2nc(-c3ccc(F)c(Cl)c3)c(C(N)=O)c2C1 [Compound 188, 2-(3-Chloro-4-fluorophenyl)-N^5-(3,3-difluoro-2-methylbutan-2-yl)-6,7-dihydropyrazolo[1,5-a] pyrazine-3,5(4H)-dicarboxamide] | 0.01 to 10 nM | 0.01 to 10 nM | – | –
